Measured values published in patent US11576416B2, “Method of producing microparticles of the type having a crosslinked, aggregated protein matrix by spray drying” (Anabio Technologies Limited, priority 2015, dated 2023).

What was measured:
Lb. acidophilus = experiment: Survival of probiotic bacteria during the drying process; type: cell-based; conditions: acid used as the weak acid in the mix
From the text: The pH of the final product will dictate the type of weak acid to be utilised.

experimental animals = conditions: cited from earlier work

| Structure (SMILES) | Viability of probiotic bacteria during the drying process (Lb. acidophilus) | Hazard to man or animals (experimental animals; at the level succinic acid occurs naturally in foods) | Amount tolerated by experimental animals (experimental animals; experimental animals) |
| --- | --- | --- | --- |
| O=C1O[C@H]([C@@H](O)CO)C(O)=C1O [Ascorbic acid] | has not effect |  |  |
| O=C(O)CCC(=O)O [succinic acid, butanedioic acid] | has not effect | no evidence that it is hazardous | several |
